Source: article PMC5062470, “The mGluR2 positive allosteric modulator, SAR218645, improves memory and attention deficits in translational models of cognitive symptoms associated with schizophrenia” (Scientific Reports, 2016)

Legend:
rat mGluR3 = biological target: T1, rat mGluR3 (Rattus norvegicus, UniProt P31422); assay: [3H]LY341495 binding to membranes
T1 construct: expressed in transfected cells; host or cells: inducible HEK-293 cell line (membranes)
Description: Membranes were prepared from an inducible HEK-293 cell line expressing rat mGluR2 or mGluR3. Binding assay was adapted from Johnson et al.[29]. Briefly, [^3H]LY341495 (1.4 nM) was evaluated for binding in the presence or in the absence of orthosteric and allosteric ligands. […] Addition of 5–10 μg membrane protein initiated the incubation. After 45 min at room temperature, the incubation was terminated by rapid filtration followed by scintillation counting. Ki’s were calculated using 4-parameter curve fitting.

Sprague-Dawley rats = assay: DOI-induced glutamate release in the medial prefrontal cortex (microdialysis); type: in vivo
Description: Male Sprague-Dawley rats (320–350 g) were housed two per cage. Two days before the dialysis assay, they were anesthetized with chloral hydrate (400 mg/kg, ip, 10 ml/kg of body weight) and placed in a stereotaxic apparatus (David Kopf Instruments, Tujunga, CA, USA). Anesthesia was maintained throughout surgery as necessary with supplementary doses of chloral hydrate. Body temperature was monitored by a rectal probe and adjusted (37 ± 1 °C) by a homeothermic blanket. The skull and the dura were opened to allow the implantation of a guide cannula in the medial prefrontal cortex (PFC). The coordinates were […] to bregma, […] to the midline and […] the dural surface. A dental cement cap held the cannula in place, and three screws anchored the cap to the skull. The rats were individually housed post-surgery and allowed two days of recovery before the start of the experiment. On the day of the experiment, animals were placed in a microdialysis bowl, the cannula cap was removed, and a […] (CMA12, Carnegie Medicine AB, Stockholm, Sweden) was inserted into the guide cannula. The probe was perfused at a constant flow rate of 1 μl/min using a microinjection pump (CMA100; Carnegie Medicine AB) with a gassed Ringer’s solution containing (in mM): NaCl (145), KCl (2.7), CaCl2 (1.2), MgCl2 (1), Na2HPO4 (2.3), […]; pH 7.4. Microdialysis sampling started 120 min after probe placement into the PFC. The outlet of the probe was connected to an on-line derivatization system allowing direct analysis of dialysate samples collected every 15 min. […] CE experiments were performed on a P/ACE MDQ capillary electrophoresis system (Beckman Coulter, Villepinte, France) coupled to an external Zetalif fluorescence detector (Picometrics S.A., Toulouse, France). […] The emission intensity was measured at a wavelength of 490 nm. […] Dose-effect of SAR218645 was evaluated by comparing the area under the curve during the first 150 min after po injection of the drug or vehicle. […]

DAT−/− mice = assay: Spontaneous locomotor hyperactivity of transgenic mice; type: in vivo
Description: (§1) An actimeter device consisting of a cylinder (20 cm diameter, 9.5 cm height, Apelex, France) equipped with two perpendicular light beams located 1.5 cm above the floor was used. Mice from the transgenic batches (DAT^−/− and NMDA Nr1^neo−/−) were orally pretreated with either SAR218645 or vehicle and individually isolated in boxes for a period of 60 min. Animals were then placed in the actimeter device and locomotor activity (number of interrupted light beams) was recorded for a period of 30 or 60 min. Mice in which the expression of the dopamine transporter (DAT) was knocked out (i.e., the DAT^−/− mouse) have been proposed as a reliable model of the positive symptoms of schizophrenia. In these mice, dopamine levels in the synapse are dramatically elevated and these animals are hyperactive and agitated in behavioral tests. NMDA Nr1^neo−/− mice express only 5 to 10% of normal levels of the NR1 subunit of the NMDA receptor[33], thus mimicking a hypo-glutamatergic state. […] As such, they have been proposed as an animal model of schizophrenia. […] As such, in our present experiments, a relatively moderate dose of amphetamine (2 mg/kg ip) or MK-801 (0.2 mg/kg, ip) was used to selectively induce similar hyperactivity, with no noticeable appearance of stereotyped behaviors in normal mice. For amphetamine or MK-801 antagonism experiments, male Swiss mice (20–30 g) were orally pretreated with SAR218645, haloperidol or vehicle, immediately individually isolated in a Plexiglas box, followed 30 min later by administration of vehicle, amphetamine or MK-801. Immediately following amphetamine challenge, 30 min after MK-801 challenge, mice were placed in the actimeter devices and locomotor activity was recorded for a period of 30 (DAT^−/−) or 60 (NMDA Nr1^neo−/−) min.
(§2) Statistical analyses were performed using SAS V8.2 software (SAS Institute, Cary, NC, USA). The number of light beam breaks (motility count) recorded for 30 or 60 min were analyzed using one-way ANOVAs using a fixed factor of challenge or genotype and complementary post hoc (Newman-Keuls) tests were performed. Five to nine animals per group were used.

NMDA Nr1neo−/− mice = assay: as above; type: in vivo
Description: as §1, §2

rat mGluR2 = rat mGluR2 (Rattus norvegicus, UniProt P31421); assay: [3H]LY341495 binding to membranes; parameters: expressed in transfected cells; host or cells: inducible HEK-293 cell line (membranes); conditions: 10 μM SAR218645
Description: Binding assay was adapted from Johnson et al.[29]. […] Addition of 5–10 μg membrane protein initiated the incubation. After 45 min at room temperature, the incubation was terminated by rapid filtration followed by scintillation counting. Ki’s were calculated using 4-parameter curve fitting.

Sequence of rat mGluR2 (P31421 19-872): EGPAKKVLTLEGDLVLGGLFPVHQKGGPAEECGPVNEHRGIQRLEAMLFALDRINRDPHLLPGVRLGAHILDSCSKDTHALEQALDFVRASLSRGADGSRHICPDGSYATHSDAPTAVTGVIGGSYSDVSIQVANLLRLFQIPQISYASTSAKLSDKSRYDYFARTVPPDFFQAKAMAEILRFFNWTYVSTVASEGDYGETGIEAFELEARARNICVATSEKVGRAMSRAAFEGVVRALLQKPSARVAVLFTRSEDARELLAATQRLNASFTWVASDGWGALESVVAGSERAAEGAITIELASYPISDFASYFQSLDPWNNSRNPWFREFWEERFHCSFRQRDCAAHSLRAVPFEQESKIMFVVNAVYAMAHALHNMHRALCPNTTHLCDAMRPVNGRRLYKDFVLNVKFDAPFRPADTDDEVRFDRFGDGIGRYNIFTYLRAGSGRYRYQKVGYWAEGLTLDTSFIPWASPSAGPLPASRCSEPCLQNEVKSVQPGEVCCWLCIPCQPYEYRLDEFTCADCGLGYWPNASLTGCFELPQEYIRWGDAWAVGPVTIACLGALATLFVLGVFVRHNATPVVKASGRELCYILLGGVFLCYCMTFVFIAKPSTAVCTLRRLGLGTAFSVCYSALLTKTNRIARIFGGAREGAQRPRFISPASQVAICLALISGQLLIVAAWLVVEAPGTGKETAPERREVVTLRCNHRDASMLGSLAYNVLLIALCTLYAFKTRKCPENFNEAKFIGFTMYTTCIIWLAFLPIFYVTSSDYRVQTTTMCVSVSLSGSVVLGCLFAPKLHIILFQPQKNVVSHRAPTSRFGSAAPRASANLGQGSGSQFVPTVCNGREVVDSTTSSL
T1 sequence (P31422 23-879): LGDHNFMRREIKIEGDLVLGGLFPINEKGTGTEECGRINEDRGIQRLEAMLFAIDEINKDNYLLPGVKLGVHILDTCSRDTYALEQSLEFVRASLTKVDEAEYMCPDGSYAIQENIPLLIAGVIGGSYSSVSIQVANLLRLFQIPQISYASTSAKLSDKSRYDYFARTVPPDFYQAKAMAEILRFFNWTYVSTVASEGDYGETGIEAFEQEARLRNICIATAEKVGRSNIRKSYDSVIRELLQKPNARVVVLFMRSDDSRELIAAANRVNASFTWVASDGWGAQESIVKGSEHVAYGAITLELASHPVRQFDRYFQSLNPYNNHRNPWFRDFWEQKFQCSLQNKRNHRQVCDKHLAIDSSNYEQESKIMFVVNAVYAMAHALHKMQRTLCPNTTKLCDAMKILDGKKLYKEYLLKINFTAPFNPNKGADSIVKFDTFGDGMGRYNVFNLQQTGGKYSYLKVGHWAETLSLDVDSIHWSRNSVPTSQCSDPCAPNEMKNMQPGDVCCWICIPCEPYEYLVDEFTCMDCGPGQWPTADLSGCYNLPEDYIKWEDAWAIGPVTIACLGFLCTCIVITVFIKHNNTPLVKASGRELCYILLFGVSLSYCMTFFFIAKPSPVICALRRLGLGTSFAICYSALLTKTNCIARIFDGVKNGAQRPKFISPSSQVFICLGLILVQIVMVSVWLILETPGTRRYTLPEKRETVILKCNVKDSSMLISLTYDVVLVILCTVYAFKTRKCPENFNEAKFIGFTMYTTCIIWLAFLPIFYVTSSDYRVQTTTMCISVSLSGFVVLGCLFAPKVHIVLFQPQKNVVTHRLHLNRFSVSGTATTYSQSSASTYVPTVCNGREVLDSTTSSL

CC1(C)CCc2cc(OC[C@@H]3Cn4ccc(=O)nc4O3)ccc21 [SAR218645, (S)-2-(1,1-dimethyl-indan-5-yloxymethyl)-2,3-dihydro-oxazolo[3,2-a]pyrimidin-7-one]
effect on [3H]LY341495 binding, compound alone (rat mGluR3; applied alone): no effect | effect on glutamate-mediated inhibition of [3H]LY341495 binding (rat mGluR3; with glutamate): nor did the drug affect | effect on DOI-induced increase in extracellular glutamate (time-course) (Sprague-Dawley rats; 3 mg/kg po, 30 min before DOI 2.5 mg/kg sc): blocked significantly | effect on glutamate AUC during 150 min (Sprague-Dawley rats; 30 mg/kg po, P < 0.05): reaching statistical significance | Minimal active dose (Sprague-Dawley rats; dose-range 0.3–30, po, Sprague-Dawley rats): 3 mg/kg | effect on locomotor activity (DAT−/− mice; DAT−/− mice, SAR218645 po): no effects | Minimal active dose (DAT−/− mice; dose-range 3–10, po): >10 mg/kg | effect on locomotor activity (NMDA Nr1neo−/− mice; NMDA Nr1neo−/− mice, SAR218645 po): no effects | Minimal active dose (NMDA Nr1neo−/− mice; dose-range 1–10, po): >10 mg/kg | inhibition of [3H]LY341495 binding by compound alone (rat mGluR2): not inhibited | lowering of the Ki of glutamate (rat mGluR2): 3.5 fold | maximal binding, glutamate in the presence of SAR218645 (rat mGluR2; Fig. 5B): 90%
